# According to patent US9403832B2, “Pyrazolo[1,5-a]pyrimidine-based compounds, compositions comprising them, and methods of their use” (Lexicon Pharmaceuticals, Inc., priority 2012, dated 2016):
# Molecular target: T1, AAK1 (Homo sapiens, UniProt Q2M2I8)
# T1 construct: NP_055726.2
# Test: P81 filter plate assay
# Assay type: biochemical
# Details: full-length human AAK1, Mu2 substrate, 33P-ATP
# Description: Compounds were serially diluted into a Labcyte LDV plate (Labcyte, cat#LP-0200) using a Mutiprobe (PerkinElmer) and Biomek FX (Beckman Coulter) so that the highest compound concentration was at 96 μM. Compounds were then pinged (75 nL per well) into a Greiner 384-well reaction plate (Greiner, #781076) using an ECHO 550 Liquid Handler (Labcyte). A total of 12 μl reaction buffer (IMAP buffer containing Tween and DTT, from Molecular Devices) was then added to each well of columns 1 and 13 for the negative controls and 12 μl of 2× AAK1 (0.2 nM full-length human protein, NCBI accession no. NP_055726.2) was added to the remaining wells. Enzyme was then pre-incubated with compound for 10 minutes at RT. Reactions were initiated upon Minitrak (PerkinElmer) addition of 12 μl substrate mix containing 2× Mu2 (0.2 μM, full length human protein), 2× cold ATP (2 μM), and 1.3 μCi of hot ^33P-ATP. […] proceeded for one hour at RT. Meanwhile, Millipore 384-well P81 filter plates (Millipore, catalog #MZPHNOW10) were placed on a plate washer (Zoom ZW, from Titertek) and pre-wet with 50 μl 1% phosphoric acid. Kinase reactions were then stopped upon addition of 24 μl of 2% phosphoric acid to each well and the Minitrak was then used to transfer 40 μl from each well into the pre-wet Millipore 384-well P81 filter plates. Reaction mixtures were incubated for 10 minutes at RT in the P81 plates, followed by washing five times with 100 μl/well of 1% phosphoric acid using the Zoom filter washer. The bottom of each filter plate was sealed followed by addition of 20 μl Microscint 40 to each well, sealing the top of the plates with Flashplate cover, and then waiting one hour until reading on the TopCount (PerkinElmer).
# T1 sequence (Q2M2I8 1-863 isoform Q2M2I8-2): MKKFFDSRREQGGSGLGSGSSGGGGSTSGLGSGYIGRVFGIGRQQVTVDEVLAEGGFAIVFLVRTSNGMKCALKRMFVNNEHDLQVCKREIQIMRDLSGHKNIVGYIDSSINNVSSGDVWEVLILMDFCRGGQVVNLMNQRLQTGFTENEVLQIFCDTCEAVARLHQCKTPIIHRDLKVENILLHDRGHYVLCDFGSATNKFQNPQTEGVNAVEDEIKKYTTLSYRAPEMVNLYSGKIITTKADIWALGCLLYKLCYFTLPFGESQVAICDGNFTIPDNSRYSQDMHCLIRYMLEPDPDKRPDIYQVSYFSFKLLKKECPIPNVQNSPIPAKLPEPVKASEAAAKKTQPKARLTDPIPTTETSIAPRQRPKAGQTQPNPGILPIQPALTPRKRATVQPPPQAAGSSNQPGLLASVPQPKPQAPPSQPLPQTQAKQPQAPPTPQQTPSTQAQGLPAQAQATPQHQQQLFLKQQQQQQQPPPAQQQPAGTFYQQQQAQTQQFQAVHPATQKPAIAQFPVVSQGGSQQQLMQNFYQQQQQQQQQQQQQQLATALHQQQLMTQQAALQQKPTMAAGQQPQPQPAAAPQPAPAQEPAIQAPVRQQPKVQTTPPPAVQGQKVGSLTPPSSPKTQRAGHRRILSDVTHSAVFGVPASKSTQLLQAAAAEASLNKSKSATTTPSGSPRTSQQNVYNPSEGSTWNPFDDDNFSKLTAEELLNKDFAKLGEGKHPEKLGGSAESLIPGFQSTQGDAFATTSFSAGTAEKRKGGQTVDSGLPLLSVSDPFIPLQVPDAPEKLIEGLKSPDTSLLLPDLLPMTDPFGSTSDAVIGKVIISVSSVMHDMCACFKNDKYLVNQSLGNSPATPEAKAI
row,Compound,IC50 [nM]
1,"COCC(COC)OC(=O)N1CCN(c2ccn3ncc(-c4cccnc4OC)c3n2)CC1 [1,3-dimethoxypropan-2-yl 4-(3-(2-methoxypyridin-3-yl)pyrazolo[1,5-a]pyrimidin-5-yl)piperazine-1-carboxylate]",≤ 100
2,"COc1ncccc1-c1cnn2ccc(N3CCN(C(=O)CC(C)C)CC3)nc12 [1-(4-(3-(2-methoxypyridin-3-yl)pyrazolo[1,5-a]pyrimidin-5-yl)piperazin-1-yl)-3-methylbutan-1-one]",≤ 10
3,"COCCOCCOC(=O)N1CCN(c2ccn3ncc(-c4cccnc4OC)c3n2)CC1 [2-(2-methoxyethoxy)ethyl 4-(3-(2-methoxypyridin-3-yl)pyrazolo[1,5-a]pyrimidin-5-yl)piperazine-1-carboxylate]",≤ 100
4,"COc1ncccc1-c1cnn2ccc(N3CCN(C(=O)OCCN(C)C)CC3)nc12 [2-(dimethylamino)ethyl 4-(3-(2-methoxypyridin-3-yl)pyrazolo[1,5-a]pyrimidin-5-yl)piperazine-1-carboxylate]",≤ 100
5,"COc1ncccc1-c1cnn2ccc(N3CCN(C(=O)OCCOC(C)(C)C)CC3)nc12 [2-(tert-butoxy)ethyl 4-(3-(2-methoxypyridin-3-yl)pyrazolo[1,5-a]pyrimidin-5-yl)piperazine-1-carboxylate]",≤ 10
6,"COc1ncccc1-c1cnn2ccc(N3CCN(C(=O)C(C)(C)N)CC3)nc12 [2-amino-1-(4-(3-(2-methoxypyridin-3-yl)pyrazolo[1,5-a]pyrimidin-5-yl)piperazin-1-yl)-2-methylpropan-1-one]",≤ 100
7,"CCOCCOC(=O)N1CCN(c2ccn3ncc(-c4cccnc4OC)c3n2)CC1 [2-ethoxyethyl 4-(3-(2-methoxypyridin-3-yl)pyrazolo[1,5-a]pyrimidin-5-yl)piperazine-1-carboxylate]",≤ 100
8,"COc1ncccc1-c1cnn2ccc(N3CCN4C(=O)N(CC(C)C)CC4C3)nc12 (stereo not drawn) [2-isobutyl-7-(3-(2-methoxypyridin-3-yl)pyrazolo[1,5-a]pyrimidin-5-yl)hexahydroimidazo[1,5-a]pyrazin-3(2H)-one]",≤ 10
9,"COC(=O)COC(=O)N1CCN(c2ccn3ncc(-c4cccnc4OC)c3n2)CC1 [2-methoxy-2-oxoethyl 4-(3-(2-methoxypyridin-3-yl)pyrazolo[1,5-a]pyrimidin-5-yl)piperazine-1-carboxylate]",≤ 100
10,"CCOc1ncccc1-c1cnn2ccc(N3CCN(C(=O)OCCOC)CC3)nc12 [2-methoxyethyl 4-(3-(2-ethoxypyridin-3-yl)pyrazolo[1,5-a]pyrimidin-5-yl)piperazine-1-carboxylate]",≤ 10
11,"COCCOC(=O)N1CCN(c2ccn3ncc(-c4cccnc4OC)c3n2)CC1 [2-methoxyethyl 4-(3-(2-methoxypyridin-3-yl)pyrazolo[1,5-a]pyrimidin-5-yl)piperazine-1-carboxylate]",≤ 10
12,"COc1nc(C)ccc1-c1cnn2ccc(N3CCN(CC(F)(F)F)CC3)nc12 [3-(2-methoxy-6-methylpyridin-3-yl)-5-(4-(2,2,2-trifluoroethyl)piperazin-1-yl)pyrazolo[1,5-a]pyrimidine]",≤ 100
13,"COc1ncccc1-c1cnn2ccc(N3CCN(CC(F)(F)F)CC3)nc12 [3-(2-methoxypyridin-3-yl)-5-(4-(2,2,2-trifluoroethyl)piperazin-1-yl)pyrazolo[1,5-a]pyrimidine]",≤ 100
14,"COc1ncccc1-c1cnn2ccc(N3CCN(CCC(F)(F)F)CC3)nc12 [3-(2-methoxypyridin-3-yl)-5-(4-(3,3,3-trifluoropropyl)piperazin-1-yl)pyrazolo[1,5-a]pyrimidine]",≤ 1000
15,"COc1ncc(F)cc1-c1cnn2ccc(N3CCN(CC(F)(F)F)CC3)nc12 [3-(5-fluoro-2-methoxypyridin-3-yl)-5-(4-(2,2,2-trifluoroethyl)piperazin-1-yl)pyrazolo[1,5-a]pyrimidine]",≤ 1000
16,"COc1ncc(F)cc1-c1cnn2ccc(N3CCN(CCC(F)(F)F)CC3)nc12 [3-(5-fluoro-2-methoxypyridin-3-yl)-5-(4-(3,3,3-trifluoropropyl)piperazin-1-yl)pyrazolo[1,5-a]pyrimidine]",≤ 1000
17,"CC(C)(C)OCCCNc1ccn2ncc(Br)c2n1 [3-bromo-N-(3-(tert-butoxy)propyl)pyrazolo[1,5-a]pyrimidin-5-amine]",≤ 1000
18,"COc1ncccc1-c1cnn2ccc(N3C[C@H]4C[C@@H](C3)N4C(=O)OC(C)C)nc12 [(1R,5S)-isopropyl 3-(3-(2-methoxypyridin-3-yl)pyrazolo[1,5-a]pyrimidin-5-yl)-3,6-diazabicyclo[3.1.1]heptane-6-carboxylate]",≤ 100
19,"COc1ncccc1-c1cnn2ccc(N3C[C@H]4C[C@@H](C3)N4C(=O)OC(C)(C)C)nc12 [(1R,5S)-tert-butyl 3-(3-(2-methoxypyridin-3-yl)pyrazolo[1,5-a]pyrimidin-5-yl)-3,6-diazabicyclo[3.1.1]heptane-6-carboxylate]",≤ 100

# Now from value to molecule:
row,IC50 [nM],Compound
1,≤ 100,"FC(F)(F)CN1CCN(c2ccn3ncc(Br)c3n2)CC1 [3-bromo-5-(4-(2,2,2-trifluoroethyl)piperazin-1-yl)pyrazolo[1,5-a]pyrimidine]"
2,≤ 10,"COCCCOC(=O)N1CCN(c2ccn3ncc(-c4cccnc4OC)c3n2)CC1 [3-methoxypropyl 4-(3-(2-methoxypyridin-3-yl)pyrazolo[1,5-a]pyrimidin-5-yl)piperazine-1-carboxylate]"
3,≤ 100,"COCc1cn(-c2ccn3ncc(-c4cccnc4OC)c3n2)cn1 [5-(4-(methoxymethyl)-1H-imidazol-1-yl)-3-(2-methoxypyridin-3-yl)pyrazolo[1,5-a]pyrimidine]"
4,≤ 100,"COc1ncccc1-c1cnn2ccc(N3CCN(c4noc(C(C)C)n4)CC3)nc12 [5-isopropyl-3-(4-(3-(2-methoxypyridin-3-yl)pyrazolo[1,5-a]pyrimidin-5-yl)piperazin-1-yl)-1,2,4-oxadiazole]"
5,≤ 100,"COc1ncccc1-c1cnn2ccc(-n3cnc(CO)c3)nc12 [(1-(3-(2-methoxypyridin-3-yl)pyrazolo[1,5-a]pyrimidin-5-yl)-1H-imidazol-4-yl)methanol]"
6,≤ 100,"CCO/C=C/c1cnn2ccc(N3CCN(C(=O)OC(C)C)CC3)nc12 [(E)-isopropyl 4-(3-(2-ethoxyvinyl)pyrazolo[1,5-a]pyrimidin-5-yl)piperazine-1-carboxylate]"
7,≤ 1000,"COC/C=C/c1cnn2ccc(N3CCN(C(=O)OC(C)C)CC3)nc12 [(E)-isopropyl 4-(3-(3-methoxyprop-1-en-1-yl)pyrazolo[1,5-a]pyrimidin-5-yl)piperazine-1-carboxylate]"
8,≤ 100,"COc1ncccc1-c1cnn2ccc(N3CCN(C(=O)[C@H](N)CC(C)C)CC3)nc12 [(R)-2-amino-1-(4-(3-(2-methoxypyridin-3-yl)pyrazolo[1,5-a]pyrimidin-5-yl)piperazin-1-yl)-4-methylpentan-1-one]"
9,≤ 100,"COc1ncccc1-c1cnn2ccc(N3CCN(C[C@@H](N)CC(C)C)CC3)nc12 [(S)-1-(4-(3-(2-methoxypyridin-3-yl)pyrazolo[1,5-a]pyrimidin-5-yl)piperazin-1-yl)-4-methylpentan-2-amine]"
10,≤ 100,"CC(C)C[C@H](N)C(=O)N1CCN(c2ccn3ncc(Br)c3n2)CC1 [(S)-2-amino-1-(4-(3-bromopyrazolo[1,5-a]pyrimidin-5-yl)piperazin-1-yl)-4-methylpentan-1-one]"
11,≤ 100,"CC(C)C[C@H](N)C(=O)N1CCN(c2ccn3ncc(Cl)c3n2)CC1 [(S)-2-amino-1-(4-(3-chloropyrazolo[1,5-a]pyrimidin-5-yl)piperazin-1-yl)-4-methylpentan-1-one]"
12,≤ 1000,"CC(C)C[C@H](N)C(=O)N1CCN(c2ccn3ncc(F)c3n2)CC1 [(S)-2-amino-1-(4-(3-fluoropyrazolo[1,5-a]pyrimidin-5-yl)piperazin-1-yl)-4-methylpentan-1-one]"
13,≤ 10,"COc1ncccc1-c1cnn2ccc(N(C)CCN(C)C(=O)[C@@H](N)CC(C)C)nc12 [(S)-2-amino-N-(2-((3-(2-methoxypyridin-3-yl)pyrazolo[1,5-a]pyrimidin-5-yl)(methyl)amino)ethyl)-N,4-dimethylpentanamide]"
14,≤ 10,"COc1ncccc1-c1cnn2ccc(N3CCN(C(=O)[C@@H]4COCCN4)CC3)nc12 [(S)-(4-(3-(2-methoxypyridin-3-yl)pyrazolo[1,5-a]pyrimidin-5-yl)piperazin-1-yl)(morpholin-3-yl)methanone]"
15,≤ 10,"COc1ccccc1-c1cnn2ccc(NC[C@@H]3CCCN3C(=O)NC(C)(C)C)nc12 [(S)-N-(tert-butyl)-2-(((3-(2-methoxyphenyl)pyrazolo[1,5-a]pyrimidin-5-yl)amino)methyl)pyrrolidine-1-carboxamide]"
16,≤ 1000,"CC(C)OC(=O)N1CCC[C@H]1CN(C)c1ccn2nccc2n1 [(S)-isopropyl 2-((methyl(pyrazolo[1,5-a]pyrimidin-5-yl)amino)methyl)pyrrolidine-1-carboxylate]"
17,≤ 1000,"Cc1ccc(-c2cnn3ccc(N4CC[C@H](N(C)C(=O)OC(C)C)C4)nc23)c(=O)n1C [(S)-isopropyl (1-(3-(1,6-dimethyl-2-oxo-1,2-dihydropyridin-3-yl)pyrazolo[1,5-a]pyrimidin-5-yl)pyrrolidin-3-yl)(methyl)carbamate]"
